{
  "source": "patent US20080193567A1",
  "about": "“Pharmaceutical Canscora Diffusa-Containing Composition” (priority 2004, published 2008)",
  "origin": "cited, not measured here",
  "key": {"[1]": {"settings": "interpreted as an effect against stress and anxiety"}, "[2]": {"system": "Mycobacterium tuberculosis"}, "[3]": {"settings": "animal experiments"}},
  "data": [
    {"compound": "dichotosinin", "values": [
      {"measurement": "adaptogenic effect", "setting": "[1]", "result": "“adaptogenic” effect"}
    ]},
    {"compound": "COc1ccc([C@@H]2CCc3c(O[C@@H]4OC(CO)[C@@H](O)[C@H](O)C4O)cc(OC)cc3O2)cc1", "note": "(some centres unmarked) [dichotosin]", "values": [
      {"measurement": "adaptogenic effect", "setting": "[1]", "result": "“adaptogenic” effect"}
    ]},
    {"compound": "O=c1c2cc(O)c(O)cc2oc2cc(O)c([C@@H]3O[C@H](CO)[C@@H](O)[C@H](O)[C@H]3O)c(O)c12", "note": "[magniferin]", "values": [
      {"measurement": "effect against Mycobacterium tuberculosis", "setting": "[2]", "result": "small effect"},
      {"measurement": "spermicidal effect", "setting": "[3]", "result": "spermicidal effect"}
    ]},
    {"compound": "COc1ccc([C@@H]2CCc3c(O[C@@H]4O[C@H](CO)[C@@H](O)[C@H](O)[C@H]4O)cc(O)cc3O2)cc1OC", "note": "[Diffutin]", "values": [
      {"measurement": "adaptogenic effect", "setting": "[1]", "result": "“adaptogenic” effect"}
    ]}
  ]
}
